Results reported in publication PMC10560236, “A protein kinase C α and β inhibitor blunts hyperphagia to halt renal function decline and reduces adiposity in a rat model of obesity-driven type 2 diabetes” (Scientific Reports, 2023).
Several values for one entry are separate records, joined by “and”; a condition that tells them apart may be missing. Equal entries are not always repeated.

Columns and labels:
PKCζ = molecular target: T1, PKCζ (Homo sapiens, UniProt Q05513); experiment: Z'-Lyte recombinant enzyme assay, PKCζ; assay type: biochemical
T1 sequence (Q05513 1-592): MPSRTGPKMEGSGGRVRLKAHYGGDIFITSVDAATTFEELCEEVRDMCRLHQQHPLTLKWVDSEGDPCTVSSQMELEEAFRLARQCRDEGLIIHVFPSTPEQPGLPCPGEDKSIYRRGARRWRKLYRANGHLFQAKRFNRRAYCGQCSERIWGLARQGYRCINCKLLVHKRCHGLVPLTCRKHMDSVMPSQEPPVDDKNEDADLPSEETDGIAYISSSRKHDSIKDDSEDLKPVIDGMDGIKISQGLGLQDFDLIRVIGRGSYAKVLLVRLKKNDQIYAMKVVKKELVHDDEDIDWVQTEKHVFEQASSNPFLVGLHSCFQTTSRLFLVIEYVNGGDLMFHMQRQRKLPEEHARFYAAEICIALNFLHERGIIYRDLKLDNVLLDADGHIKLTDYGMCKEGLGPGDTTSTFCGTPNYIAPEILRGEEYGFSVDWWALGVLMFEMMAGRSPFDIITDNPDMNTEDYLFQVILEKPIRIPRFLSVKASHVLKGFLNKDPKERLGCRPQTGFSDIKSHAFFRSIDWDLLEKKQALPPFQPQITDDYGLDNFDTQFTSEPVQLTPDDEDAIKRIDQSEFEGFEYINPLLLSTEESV
Procedure: Half maximal inhibitory concentrations of Cmpd 1 were determined by Z’-Lyte biochemical assays (Life Technologies SelectScreen™ Kinase Profiling Services, Thermo Fisher Scientific). Kinome selectivity was determined at 1 μM Cmpd 1 concentration against a panel of 119 kinases. The original kinome tree in Fig. 1b was taken from Ref.[68].

ZSF1 obese rats = experiment: 10-week efficacy study with chow dosing; assay type: in vivo, rat
Source text: Male ZSF1 (ZSF1-Lepr^faLepr^cp/Crl) lean rats (strain code #379) and ZSF1 obese rats (strain code #378) were obtained from Charles River Laboratories (Wilmington, MA). Male rats for all groups were obtained at 8–9 weeks of age at which time they were switched to high carbohydrate Purina 5008 chow (27% kcal protein, 17% kcal fat, 57% kcal carbohydrates). At 21–22 weeks of age they were then enrolled in the 10 week study. All groups were maintained on normal Purina 5008 chow for the 10 week study except the Cmpd 1 group, which was provided Purina 5008 chow formulated with 0.744g Cmpd 1 per kg chow (approximately 50 mpk/d Cmpd 1 administration; n = 5 Lean, n = 12 Obese, n = 11 Cmpd 1, n = 11 Food matched—see Fig. 4a). The amount of food provided to the Food matched group each week was determined by the estimated food consumption by the Cmpd 1 group the previous week. For all three ZSF1 obese groups, 3 animals were taken down at study mid-point for an interim analysis. All experimental protocols involving animals were reviewed and approved by the Pfizer Inc. Institutional Animal Care and Use Committee (IACUC). All experiments were performed in accordance with relevant guidelines and regulations, and all methods are reported in accordance with ARRIVE guidelines (https://arriveguidelines.org).
Male ZSF1 obese rats that had been maintained on Purina 5008 chow were switched to Purina 5008 chow with or without 0.744 g/kg Cmpd 1 at 22 weeks of age. The study duration was 10 weeks. Estimated food consumption monitored weekly. An additional group of ZSF1 obese rats was included which received an amount of Purina 5008 chow to match the previous week’s estimated food consumption by the Cmpd 1 group. Five male ZSF1 lean littermates served as baseline controls. Intermediate blood samples were taken through tail vein. 24-h urine samples at weeks 0, 5 and 10 were collected from animals in metabolic cages. Animals were sacrificed by CO2 asphyxiation followed by blood collection via cardiac puncture and tissues fixation in 10% neutral buffered formalin for histology. Unfixed inguinal white adipose tissue was also collected at study termination for downstream molecular analyses.
All assays except the insulin assay were run with the ADVIA 1800 Chemistry System (Siemens Medical Systems Diagnostics, Tarrytown, NY, USA). The serum insulin assay was run using a SpectraMax® Plus384 Absorbance Microplate Reader (Molecular Devices San Jose, CA, USA). Siemens Medical System assay kits 10376501, 10311891, 10335892, and 10335891 were used for cholesterol, low density lipoprotein (LDL)-cholesterol, triglycerides, and glucose, respectively. Roche HDL-C Reagent 3rd generation assay kit 4713257190 was used for high density lipoprotein (HDL)-cholesterol assay. For insulin, an ALPCO Diagnostics assay kit 80-INSMS-E01 was used.
Samples of formalin-fixed, paraffin embedded (FFPE) liver and kidney were sectioned and stained for Hematoxylin and Eosin (HE) and evaluated microscopically by a board-certified veterinary pathologist blinded to the treatment groups. In the kidney, microscopic features were assigned an end stage renal disease (ESRD) severity score of 1–5 (minimal to severe) using the following criteria: Grade 1 (minimal): < 10% of parenchyma affected, few glomeruli affected and no Bowman’s capsule thickening with only few protein casts and basophilic tubules observed; Grade 2 (mild): 10–25% of renal parenchyma affected, there is scattered thickening of Bowman’s capsule, +/− synechiation; Grade 3 (moderate): 26–50% of renal parenchyma affected, glomerular and tubulointerstitial changes are present; Grade 4 (marked): 51–75% of renal parenchyma affected, glomerular and tubulointerstitial changes are present; Grade 5 (severe): > 75% of renal parenchyma affected, glomerular and tubulointerstitial changes are present. […]

- IC50 (PKCζ): > 10 µM
SMILES: Cc1ncc(F)c(Nc2n[nH]c3c2CN(C(=O)N2C[C@@H](C)N(CC4CCOCC4)C[C@@H]2C)C3(C)C)n1 [Cmpd 1, 5-[(2S,5R)-2,5-dimethyl-4-(tetrahydro-2H-pyran-4-ylmethyl)piperazin-l-yl]carbonyl-N-(5-fluoro-2-methylpyrimidin-4-yl)-6,6-dimethyl-1,4,5,6-tetrahydropyrrolo[3,4-c]pyrazol-3-amine]
- Progressive decline in renal function (uMALB:creatinine ratio, 24-h urinary protein excretion) (ZSF1 obese rats; 10-week study, same in Food matched group): virtually halted
- Average body weight at study termination (ZSF1 obese rats; 10 weeks Cmpd 1 chow): 504 g and 504 ± 35 g
- Estimated food consumption at study termination (ZSF1 obese rats; 10 weeks Cmpd 1 chow): 31 g/day
- Body weight less than Lean animals at study termination (ZSF1 obese rats; 10 weeks, not statistically different): approximately 7%
- Estimated average food consumption, first three days (ZSF1 obese rats; Cmpd 1 chow approx. 50 mpk/day): 22 g/day
- Reduction in food consumption versus Obese group, first three days (ZSF1 obese rats; Cmpd 1 chow approx. 50 mpk/day): 27%
- Animals with liver macrovacuolation score of 0 (ZSF1 obese rats; after 10 weeks of dosing, score 0–3): five of eight
- ESRD score at study termination (ZSF1 obese rats; blinded histology, versus Obese, comparable to Food matched group): reduced comparably
- Serum cholesterol and triglyceride profile versus Obese group (ZSF1 obese rats; non-fasting serum): improved
- Serum glucose levels (ZSF1 obese rats; non-fasting serum): elevated
- Serum AST versus Obese group (ZSF1 obese rats; non-fasting, 5 weeks, statistically significant, not evident at 10 weeks): increased
- Serum ALT versus Obese group (ZSF1 obese rats; non-fasting, 10 weeks, statistically significant): reduced
- Serum insulin (ZSF1 obese rats; non-fasting, week 5 study midpoint): 0.62 (± 0.35) ng/mL
- ESRD severity grade of representative kidney image (ZSF1 obese rats; study endpoint, representative image Fig. 6c): Grade 1 (Grade 1 (minimal): < 10% of parenchyma affected)
- Average body weight at study start (ZSF1 obese rats; study start, 21–22 weeks of age): 564 g
- iWAT weight (ZSF1 obese rats; study termination): 29 ± 5.5 g
- Increase in adipocyte size in iWAT (ZSF1 obese rats; study termination, histology, not in Food matched group): blunted
- Average CD45+ cell staining area in iWAT (ZSF1 obese rats; study termination, immunohistochemistry): 0.045 ± 0.025%
- Liver weights (ZSF1 obese rats; study termination, primarily reflected overall body weight differences): reduced
